Laboratory results reported in ChEMBL document CHEMBL1143055, “2,3,5-Substituted tetrahydrofurans as cancer chemopreventives. Part 1: synthesis and anti-cancer activities of 5-hydroxymethyl-2,3-diaryl-tetrahydro-furan-3-ols” (2007).

Columns and labels:
[1] = test system: CCRF-CEM; assay: Antitumor activity against human CCRF-CEM cells; type: functional
[2] = test system: Malme-3M; assay: Antitumor activity against human MALME-3M cells; type: functional
[3] = test system: IGROV-1; assay: Antitumor activity against human IGROV1 cells; type: functional
[4] = test system: MOLT-4; assay: Antitumor activity against human MOLT4 cells; type: functional
[5] = test system: SR; assay: Growth inhibition of human SR cells at 1 uM; type: functional
[6] = test system: KM12; assay: Antitumor activity against human KM12 cells; type: functional
[7] = test system: OVCAR-5; assay: Antitumor activity against human OVCAR5 cells; type: functional
[8] = test system: HCC 2998; assay: Antitumor activity against human HCC2998 cells; type: functional
[9] = test system: CAKI-1; assay: Antitumor activity against human CAKI-1 cells; type: functional
[10] = test system: SK-MEL-5; assay: Antitumor activity against human SK-MEL-5 cells; type: functional
[11] = test system: SF-295; assay: Antitumor activity against human SF295 cells; type: functional
[12] = test system: A549; assay: Antitumor activity against human A549 cells; type: functional
[13] = test system: CCRF-CEM; assay: Growth inhibition of huam CCRF-CEM at 1 uM; type: functional; details: Homo sapiens
[14] = test system: HCT-15; assay: Antitumor activity against human HCT15 cells; type: functional
[15] = Antitumor activity against human HL60 (TB) cells; type: functional, HL-60(TB); details: HL-60
[16] = test system: SN12C; assay: Antitumor activity against human SN12C cells; type: functional
[17] = test system: OVCAR-8; assay: Antitumor activity against human OVCAR8 cells; type: functional
[18] = test system: UACC-62; assay: Antitumor activity against human UACC62 cells; type: functional
[19] = test system: BT-549; assay: Antitumor activity against human BT549 cells; type: functional
[20] = test system: UACC-257; assay: Antitumor activity against human UACC257 cells; type: functional
[21] = test system: NCI-H460; assay: Antitumor activity against human NCI-H460 cells; type: functional
[22] = test system: SF-268; assay: Antitumor activity against human SF268 cells; type: functional
[23] = test system: NCI-H23; assay: Antitumor activity against human NCI-H23 cells; type: functional
[24] = test system: SNB-19; assay: Antitumor activity against human SNB19 cells; type: functional
[25] = test system: RXF 393; assay: Antitumor activity against human RXF393 cells; type: functional
[26] = test system: DU-145; assay: Antitumor activity against human DU145 cells; type: functional
[27] = test system: SF-539; assay: Antitumor activity against human SF539 cells; type: functional
[28] = test system: SK-OV-3; assay: Antitumor activity against human SK-OV-3 cells; type: functional
[29] = test system: NCI-H522; assay: Antitumor activity against human NCI-H522 cells; type: functional
[30] = test system: HOP-62; assay: Antitumor activity against human HOP62 cells; type: functional
[31] = test system: ACHN; assay: Antitumor activity against human ACHN cells; type: functional
[32] = test system: A498; assay: Antitumor activity against human A498 cells; type: functional
[33] = test system: SK-MEL-28; assay: Antitumor activity against human SK-MEL-28 cells; type: functional
[34] = test system: UO-31; assay: Antitumor activity against human UO31 cells; type: functional
[35] = test system: MCF7; assay: Antitumor activity against human MCF7 cells; type: functional
[36] = test system: HOP-92; assay: Antitumor activity against human HOP92 cells; type: functional
[37] = test system: HT-29; assay: Antitumor activity against human HT29 cells; type: functional
[38] = test system: MDA-MB-435; assay: Antitumor activity against human MDA-MB-435 cells; type: functional
[39] = test system: K562; assay: Antitumor activity against human K562 cells; type: functional
[40] = test system: SW-620; assay: Antitumor activity against human SW620 cells; type: functional
[41] = test system: NCI/ADR-RES; assay: Antitumor activity against human NCI/ADR-RES cells; type: functional
[42] = test system: PC-3; assay: Antitumor activity against human PC3 cells; type: functional
[43] = test system: TK-10; assay: Antitumor activity against human TK10 cells; type: functional
[44] = test system: 786-0; assay: Antitumor activity against human 786-0 cells; type: functional
[45] = test system: RPMI-8226; assay: Antitumor activity against human RPMI8226 cells; type: functional
[46] = test system: SNB-75; assay: Antitumor activity against human SNB75 cells; type: functional
[47] = test system: OVCAR-3; assay: Antitumor activity against human OVCAR-3 cells; type: functional
[48] = test system: LOX IMVI; assay: Antitumor activity against human LOX IMVI cells; type: functional
[49] = test system: U-251; assay: Antitumor activity against human U251 cells; type: functional
[50] = test system: EKVX; assay: Antitumor activity against human EKVX cells; type: functional
[51] = test system: NCI-H226; assay: Antitumor activity against human NCI-H226 cells; type: functional
[52] = Antitumor activity against human HS 578T cells; type: functional
[53] = Antitumor activity against human […] cells; type: functional
[54] = Antitumor activity against human NCI-H322 cells; type: functional
[55] = test system: OVCAR-4; assay: Antitumor activity against human OVCAR4 cells; type: functional
[56] = test system: COLO 205; assay: Antitumor activity against human COLO205 cells; type: functional
[57] = test system: HCT-116; assay: Antitumor activity against human HCT116 cells; type: functional
[58] = test system: SR; assay: Antitumor activity against human SR cells; type: functional

COc1ccc([C@H]2O[C@@H](CO)C[C@]2(O)c2ccc(OC)cc2)cc1 (relative stereo)
GI50 [1]: > 100 µM
GI50 [2]: > 100 µM
GI50 [3]: > 100 µM
GI50 [4]: > 100 µM
inhibition at 1 µM [5]: 36%
GI50 [6]: > 100 µM
GI50 [7]: > 100 µM
GI50 [8]: > 100 µM
GI50 [9]: > 100 µM
GI50 [10]: > 100 µM
GI50 [11]: > 100 µM
GI50 [12]: > 100 µM
inhibition at 1 µM [13]: 46%
GI50 [14]: > 100 µM
GI50 [15]: 38.9 µM
GI50 [16]: > 100 µM
GI50 [17]: > 100 µM
GI50 [18]: > 100 µM
GI50 [19]: > 100 µM
GI50 [20]: > 100 µM
GI50 [21]: > 100 µM
GI50 [22]: > 100 µM
GI50 [23]: > 100 µM
GI50 [24]: > 100 µM
GI50 [25]: 28.2 µM
GI50 [26]: > 100 µM
GI50 [27]: > 100 µM
GI50 [28]: > 100 µM
GI50 [29]: > 100 µM
GI50 [30]: > 100 µM
GI50 [31]: > 100 µM
GI50 [32]: > 100 µM
GI50 [33]: > 100 µM
GI50 [34]: > 100 µM
GI50 [35]: > 100 µM
GI50 [36]: 95.5 µM
GI50 [37]: > 100 µM
GI50 [38]: > 100 µM
GI50 [39]: > 100 µM
GI50 [40]: > 100 µM
GI50 [41]: > 100 µM
GI50 [42]: > 100 µM
GI50 [43]: > 100 µM
GI50 [44]: > 100 µM
GI50 [45]: > 100 µM
GI50 [46]: > 100 µM
GI50 [47]: > 100 µM
GI50 [48]: > 100 µM
GI50 [49]: > 100 µM
GI50 [50]: > 100 µM
GI50 [51]: > 100 µM
GI50 [52]: 39.8 µM
GI50 [53]: > 100 µM
GI50 [54]: > 100 µM
GI50 [55]: > 100 µM
GI50 [56]: > 100 µM
GI50 [57]: > 100 µM
GI50 [58]: 50.1 µM
